# Laboratory results taken from patent US20260002950A1, “Uses of 5-Aminovaleric Acid Betaine and Compositions Related Thereto” (Emory University, priority 2021, published 2026).
# Entries after “also recorded” stand apart in the source; their conditions may differ.
# Assays:
# mice [1] = assay: VB treatment of mice for 3 days ± fasting: hepatic lipid accumulation; type: in vivo
# Experimental: Mice of each sex were given daily intraperitoneal injection with saline (n=5) or VB at 100 mg/kg (n=5) for 3 days±fasting.
# (§1) As observed in cells, the carnitine shuttle is the top metabolic pathway associated with VB-treatment in mice. VB treatment decreases circulating (FIG. 2A), hepatic (FIG. 2B), heart, and brain carnitine. Furthermore, VB treatment alters circulating and systemic acylcarnitine and acyl-CoA profiles. In whole tissue, VB increases hepatic and cardiac palmitoyl-CoA and decreases other short, medium, and long-chain acylcarnitines and CoAs under fasted conditions. In mitochondria, VB decreases the abundance of long-chain fatty acyl-CoAs and carnitines, consistent with a decrease in long-chain fatty acid β oxidation. VB also decreases circulating and hepatic β-hydroxybutyrate, a product of mitochondrial β-fatty acid oxidation.
# conventional mice = assay: 8-week VB treatment of conventional mice on Western or control diet: adiposity; type: in vivo
# Excerpt: (n=5 per group, one-tailed t-test).
# The relative increases are most pronounced in VAT, where fat mass in VB-treated mice on a Western diet was increased 80% in male mice and 60% in female mice compared to Western diet alone. […] The long-term consequences of VB inhibition of mitochondrial β-oxidation of fatty acids therefore include effects on body composition in mice receiving Western diet, with specific and pronounced effects on visceral adipose tissue mass.
# (§2) VB effects in fasting are particularly intriguing as a mechanism causing obesity because decreasing mitochondrial β-oxidation of lipids mobilized from adipose tissue during fasting could cause a long-term increase in fat deposition. Therefore, experiments were performed to determine whether long-term VB treatment could increase weight gain and adiposity in mice. This was tested this in both GF and conventional mice, with or without a high-fat/sugar WD. Backhead et al. report a resistance to diet-induced obesity in germ-free mice. PNSA, 104 (3), 2007. […] Furthermore, VB treatment exacerbated the development of hepatic steatosis in these mice (FIG. 4E). Similarly, VB increased adipose tissue fat mass (VAT, SubQ, BAT) in conventional mice after 8 weeks with the WD. The relative increases were most pronounced in white adipose compartments (VAT, SubQ) where fat mass in VB treated GF and conventional mice on a WD was increased over 80% compared to WD alone.
# (§3) Although WD-fed mice gained more weight than control fed mice, no differences in circulating VB were observed between WD or control-diet-fed conventional mice. These effects were not observed in GF or conventional mice fed the control diet.
# carnitine shuttle = assay: Stable isotope tracer study of palmitate metabolism in cultured cells; type: cell-based
# Experimental: (§4) Dose-response experiments with VB were performed in vitro and in vivo to examine metabolic effects of VB. The mitochondrial carnitine shuttle is the top metabolic pathway associated with VB in human HepG2 cells. […] The carnitine shuttle uses carnitine for transport of long-chain fatty acyl chains into mitochondria for fatty acid β-oxidation. […] The effect of VB on inhibition of palmitate-dependent oxygen consumption rate is confirmed by stable isotope tracer studies of palmitate metabolism, which show VB inhibits formation of ^13C16 palmitoylcarnitine from ^13C16 palmitate and decreases the formation of ^13C2 acetyl-CoA (FIG. 2D). […] Thus, VB inhibits mitochondrial long chain fatty acid metabolism through effects on carnitine and operation of the carnitine shuttle.
# GF mice = assay: 6-week VB treatment of germ-free (GF) mice on Western or control diet; type: in vivo
# Experimental: FIG. 4A illustrates experiments on long-term VB treatment in GF mice. Male GF mice were administered PBS or VB in conjunction with a control diet (CD) or WD for 6 weeks with body weight recorded as percentage weight gain (two-way repeat measures ANOVA with multiple comparisons per day.
# as §2, §3
# mouse cardiomyocytes = conditions: cited from earlier work
# HepG2 cells = assay: Palmitate-dependent mitochondrial O2 consumption rate in HepG2 cells; type: cell-based, human
# Experimental: […] Effect of VB is most pronounced in the spare capacity measured after addition of the uncoupler FCCP.
# as §4
# PPAR-response element = assay: PPAR-response element-linked luciferase activity; type: cell-based
# Excerpt: An alternative interpretation of VB activity involves an adaptive response termed mitohormesis, a process by which a minor impairment increases gene expression of mitochondrial systems which improve metabolic function of mitochondria. […] With this interpretation, VB-induced lipid accumulation could drive activity of SIRT1, PGC-1a and PPAR-a pathways which control carnitine homeostasis, mitochondrial bioenergetics, and lipid metabolism. […] Thus, VB may function through a mitohormesis response mechanism and in conjunction with diet and aging, contribute to age dependent changes in adiposity.
# [2] = target: T1, γ-butyrobetaine hydroxylase (Homo sapiens, UniProt O75936); conditions: cited from earlier work
# T1 sequence (O75936 1-387): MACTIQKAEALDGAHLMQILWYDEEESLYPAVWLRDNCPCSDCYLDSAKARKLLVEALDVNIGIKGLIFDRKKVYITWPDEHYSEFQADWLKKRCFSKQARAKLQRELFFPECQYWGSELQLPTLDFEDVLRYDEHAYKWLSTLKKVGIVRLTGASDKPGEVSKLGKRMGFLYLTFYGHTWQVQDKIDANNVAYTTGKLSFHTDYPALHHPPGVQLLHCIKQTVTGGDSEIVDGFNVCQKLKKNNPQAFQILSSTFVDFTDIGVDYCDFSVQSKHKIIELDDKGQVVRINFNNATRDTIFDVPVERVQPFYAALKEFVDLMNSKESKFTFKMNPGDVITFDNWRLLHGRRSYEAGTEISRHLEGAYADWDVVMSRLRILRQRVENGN
# human HepG2 cells = assay: Cell content of carnitine in HepG2 cells, VB dose-response; type: cell-based; conditions: VB at 10 μM, vs control cells
# Experimental: as §4
# [3] = Concentrations of VB in tissues and circulation of conventional mice (mass spectrometry); type: in vivo; conditions: endogenous
# Excerpt: To identify microbial metabolites that could impact mitochondrial function, the metabolome of liver and liver mitochondria was examined in mice with an intact microbiome (“conventionalized” mice in which germ-free mice were reconstituted with microbiome) compared to liver and liver mitochondria from germ-free mice (FIG. 1A). The top discriminatory metabolite has an accurate mass m/z of 160.1332 by ultra-high-resolution mass spectrometry, corresponding to predicted elemental composition C8H18NO2. This metabolite is found in liver and other tissues, portal and peripheral circulation, and cecum of conventional but not germ-free mice (FIG. 1B). Authentic standard co-elution and MS/MS experiments show the identity of 160.1332 m/z to be delta-valerobetaine (VB) (FIG. 1C). Concurrent analyses of propionylcholine and valine betaine, similar molecules with identical elemental compositions, conclusively excluded these structures. VB was not present in the mouse diet and was not detectable in other samples collected from GF mice. […] Concentrations were 9-26 μM in the portal vein, with higher concentrations in the liver (75-190 μmol/kg wet weight) and lower concentrations in the peripheral plasma (2-10 μM) indicating tissue accumulation.
# mice [4] = assay: VB treatment of mice, daily intraperitoneal injection for 1 week: carnitine and metabolite profiles; type: in vivo
# Experimental: Mice of each sex were given daily intraperitoneal injection with saline (n=5), VB at 10 mg/kg (n=3) or VB at 100 mg/kg (n=8) for 1 week. Kruskal-Wallis test with Dunn's multiple comparisons test to identify pairwise differences in GraphPad Prism 6.0.
# as §1
# mice [5] = conditions: cited from earlier work
smiles,measurement,setting,value
"C[N+](C)(C)CCCCC(=O)[O-] [VB, 5-(trimethylammonio) pentanoate]",Liver triglycerides (hepatic steatosis),"mice [1]; male and female mice, VB 100 mg/kg i.p. 3 days, fasted",exacerbates hepatic steatosis; also recorded: increase
same,"Liver lipid deposits, Oil Red O staining","mice [1]; mice, especially under fasted conditions",increases lipid deposits
same,Hepatic and cardiac palmitoyl-CoA,"mice [1]; mice, whole tissue, fasted conditions",increases
same,Weight of brown adipose tissue (BAT),conventional mice; 8 weeks,increased by VB in a diet dependent manner after 8-week VB treatment in males but not females; also recorded: increases brown adipose tissue (BAT) but in a less consistent manner
same,Weight of subcutaneous white adipose tissue (WAT),"conventional mice; Western diet, 8 weeks",increased by VB in a diet-dependent manner; also recorded: substantial increases
same,Weight of visceral adipose tissue (VAT),"conventional mice; Western diet, 8 weeks",increased by VB in a diet dependent manner; also recorded: substantial increases
same,"Increase of fat mass in white adipose compartments (VAT, SubQ) vs WD alone",conventional mice; conventional mice on WD,over 80%
same,"Adipose tissue fat mass (VAT, SubQ, BAT)","conventional mice; conventional mice, WD, 8 weeks",increased
same,Severity of hepatic steatosis,"conventional mice; conventional mice, Western diet, 8 weeks",Trends for increase
same,Total body mass,"conventional mice; conventional mice, Western diet, after 8 weeks, not p<0.05",Trends for increase
same,"Effects on adiposity, steatosis and body mass on control diet","conventional mice; conventional mice, control diet",not observed
same,Increase of visceral adipose tissue (VAT) fat mass vs Western diet alone,"conventional mice; female mice, Western diet, 8 weeks",60%
same,Increase of visceral adipose tissue (VAT) fat mass vs Western diet alone,"conventional mice; male mice, Western diet, 8 weeks",80%
same,Formation of 13C16 palmitoylcarnitine from 13C16 palmitate,carnitine shuttle; cultured cells,inhibits
same,Formation of 13C2 acetyl-CoA from labeled palmitate,"carnitine shuttle; cultured cells, n=3",decreases
same,Carnitine concentrations after parenteral VB dosing,GF mice; GF mice,equivalent to conventional mice
same,"Increase of fat mass in white adipose compartments (VAT, SubQ) vs WD alone",GF mice; GF mice on WD,over 80%
same,"Adipose tissue fat mass in VAT, SubQ and BAT compartments vs WD alone","GF mice; GF mice, WD, six weeks",substantial increases
same,Weight gain,"GF mice; GF mice, WD, six weeks",increased weight gain
same,Development of hepatic steatosis,"GF mice; GF mice, WD, six weeks, liver H&E scoring",exacerbated
same,"Effects on adiposity, steatosis and body mass on control diet","GF mice; GF mice, control diet",not observed
same,β-oxidation of fatty acids,mouse cardiomyocytes,decreases
same,Palmitate-dependent mitochondrial oxygen respiration (O2 consumption rate),"HepG2 cells; HepG2, 12 h without glucose, glutamine and pyruvate (mimicking fasting), VB 10 or 50 μM",inhibited; also recorded: dose-dependent decrease
same,"Basal, ADP-linked O2 consumption rate, spare capacity, non-mitochondrial respiration","HepG2 cells; glucose, glutamine and pyruvate present at high concentration in culture media",little decrease
same,PPAR-response element-linked luciferase activity,PPAR-response element,dose-dependent increase
same,γ-butyrobetaine hydroxylase activity,[2],inhibits
same,Cell content of carnitine,human HepG2 cells,decreased to half that of control cells
same,Concentration of VB in the cecum,[3],millimolar range
same,Concentration of VB in the liver,[3],75-190 μmol/kg wet weight
same,Concentration of VB in the peripheral plasma,[3],2 to 10 µM
same,Concentration of VB in the portal vein,[3],9 to 26 µM
same,Concentration of VB in the colon,[3]; relative to cecum,somewhat lower concentrations
same,Circulating and hepatic β-hydroxybutyrate,mice [4],decreases
same,Circulating carnitine,"mice [4]; VB 10 or 100 mg/kg i.p. daily, 1 week",decreases
same,Brain carnitine,mice [4]; VB treatment,decreases
same,Heart carnitine,mice [4]; VB treatment,decreases
same,Hepatic carnitine,mice [4]; VB treatment,decreases
same,"Triacylglycerol and diacylglycerol species in liver, heart and brain",mice [4]; lipid profiling,increases
same,Abundance of long-chain fatty acyl-CoAs and carnitines in mitochondria,mice [4]; mitochondria,decreases
same,Fatty liver,mice [5],exacerbates
"C[N+](C)(C)CC(O)CC(=O)[O-] (centres unmarked) [carnitine, reference compound]",Rescue of VB effect on cellular carnitine and palmitoylcarnitine formation,carnitine shuttle; addition of carnitine to VB-treated cells,restores cellular carnitine and formation of palmitoylcarnitine
